Measurements taken from US4531001A, “2-β-D-ribofuranosylselenazole-4-carboxamide compounds” (priority 1983, dated 1985).
≈ marks a conversion by molar mass, not a printed value. Entries after “also recorded” stand apart in the source; their conditions may differ. Read-outs that look alike come from different tables or passages of the source.

Tests used:
P388 = assay: Growth inhibition in suspension cell culture, P388; assay type: cell-based; conditions: Mus musculus, 72 hours, cell count 50 percent of untreated control, read-out: ID50 (the source's name)
Description: (§1) In further tests, growth-inhibitory effects of COMPOUND 1 and COMPOUND 2 were measured against 3 mouse tumor lines in suspension cell culture. Cell cultures were initiated at a density of 50,000 cells/ml in medium RPMI 1630 supplemented with 10 percent fetal calf serum. Composition of this culture medium and details of the culture procedure followed the published method (G. E. Moore, A. A. Sandberg and K. Ulrich, Suspension Cell Culture and in vivo and in-vitro chromosome constitution of mouse leukemia L1210, Journal of the National Cancer Institute 36, 405-415, 1966). Cultures were maintained at 37 degrees in stationary suspension culture under a 95 percent air+5 percent CO2 atmosphere. Test compounds were added to treated cultures at the time of initiation, and were present continually. After 72 hours, 40-fold dilutions of drug-treated and untreated control cultures were prepared in 0.9 percent NACl solution, and cells were counted on an electronic particle counter. The growth-inhibitory effects are expressed as ID50 values, namely, test compound inhibitory dosages or concentrations required to decrease cell count in treated cultures to 50 percent of the cell count of untreated control cultures.

B16 Melanoma = assay: Growth inhibition in suspension cell culture, B16 Melanoma; assay type: cell-based; conditions: Mus musculus, 72 hours, cell count 50 percent of untreated control, read-out: ID50 (the source's name)
Description: as §1

Ad-2 = assay: Antiviral activity (virus rating method); assay type: cell-based
From the text: (§2) Microbiol. 22, 797 (1971). A virus rating that is greater than 1.0 indicates definite antiviral activity. […] The results reported below were obtained by testing on Microtest II (Falcon Plastics) plastic panels with a monolayer of Vero or HeLa cells.

Cox B1 = assay: Antiviral activity (virus rating method); assay type: cell-based; conditions: for Virus Rating: >1.0 definite, 0.5-0.9 moderate, <0.5 slight or no activity; for EC50: read-out: ED50 (the source's name)
From the text: as §2

Cox B4 = assay: Antiviral activity (virus rating method); assay type: cell-based; conditions: for Virus Rating: >1.0 definite, 0.5-0.9 moderate, <0.5 slight or no activity
From the text: as §2

HSV-1 = assay: Antiviral activity (virus rating method); assay type: cell-based; conditions: for Virus Rating: >1.0 definite, 0.5-0.9 moderate, <0.5 slight or no activity; for EC50: read-out: ED50 (the source's name)
From the text: as §2

HSV-2 = assay: Antiviral activity (virus rating method); assay type: cell-based; conditions: for Virus Rating: >1.0 definite, 0.5-0.9 moderate, <0.5 slight or no activity; for EC50: read-out: ED50 (the source's name)
From the text: as §2

Measles = assay: Antiviral activity (virus rating method); assay type: cell-based; conditions: for Virus Rating: >1.0 definite, 0.5-0.9 moderate, <0.5 slight or no activity; for EC50: Measles morbillivirus, read-out: ED50 (the source's name)
From the text: as §2

Mumps = assay: Antiviral activity (virus rating method); assay type: cell-based; conditions: for Virus Rating: >1.0 definite, 0.5-0.9 moderate, <0.5 slight or no activity; for EC50: read-out: ED50 (the source's name)
From the text: as §2

Para 3 = assay: Antiviral activity (virus rating method); assay type: cell-based; conditions: for Virus Rating: >1.0 definite, 0.5-0.9 moderate, <0.5 slight or no activity; for EC50: read-out: ED50 (the source's name)
From the text: as §2

Reo 3 = assay: Antiviral activity (virus rating method); assay type: cell-based; conditions: for Virus Rating: >1.0 definite, 0.5-0.9 moderate, <0.5 slight or no activity; for EC50: read-out: ED50 (the source's name)
From the text: as §2

VV = assay: Antiviral activity (virus rating method); assay type: cell-based; conditions: for Virus Rating: >1.0 definite, 0.5-0.9 moderate, <0.5 slight or no activity; for EC50: read-out: ED50 (the source's name)
From the text: as §2

VSV = assay: microbe, parasite or virus in culture; assay type: cell-based; conditions: for Virus Rating: >1.0 definite, 0.5-0.9 moderate, <0.5 slight or no activity; for EC50: Vesicular stomatitis virus, read-out: ED50
DNA and RNA viruses = assay: Antiviral activity against the DNA and RNA virus panel; assay type: cell-based
From the text: as §2

3 mouse tumor lines = assay: Growth inhibition in suspension cell culture, representative tumor lines; assay type: cell-based; conditions: representative tumor lines in cell culture
Description: as §1

Vero cells = assay: Toxicity to Vero cells; conditions: 1000 ug/ml (highest concentration tested)
Hela cells = assay: Toxicity to Hela cells; conditions: 1000 ug/ml (highest concentration tested)
MRC-5 cells = assay: Toxicity to MRC-5 cells; conditions: 1000 ug/ml (highest concentration tested)
[1] = HeLa, read-out: ED50 (the source's name)

NC(=O)c1c[se]c([C@@H]2O[C@H](CO)[C@@H](O)[C@H]2O)n1 [COMPOUND 1, 2-β-D-ribofuranosylselenazole-4-carboxamide]
IC50 (P388): 270 nM
IC50 (B16 Melanoma): 3500 nM
antiviral activity in words (Ad-2; HeLa cells, Adenoviridae (Adeno-2)): Excellent antiviral activity
Virus Rating (Ad-2; HeLa, >1.0 definite, 0.5-0.9 moderate, <0.5 slight or no activity): 1.9
EC50 (Ad-2; [1]): 9 µg/mL (≈ 29.3 µM)
antiviral activity in words (Cox B1; HeLa cells, Picornaviridae (Cox B1)): Excellent antiviral activity
Virus Rating (Cox B1; HeLa): 1.8
EC50 (Cox B1; HeLa): 10 µg/mL (≈ 32.6 µM)
Virus Rating (Cox B1; Vero): 1.7
EC50 (Cox B1; Vero): 15 µg/mL (≈ 48.8 µM)
antiviral activity in words (Cox B4; HeLa cells, Picornaviridae (Cox B4)): Excellent antiviral activity
Virus Rating (Cox B4; HeLa): 2.3
EC50 (Cox B4; [1]): 6 µg/mL (≈ 19.5 µM)
EC50 (Cox B4; Vero, read-out: ED50): 1000 µg/mL (≈ 3260 µM)
Virus Rating (Cox B4; Vero): 0.0
type of antiviral activity (HSV-1; HSV-1, depending upon cell line): virusstatic
Virus Rating (HSV-1; HeLa): 1.4
EC50 (HSV-1; Human alphaherpesvirus 1, HeLa): 2 µg/mL (≈ 6.51 µM)
EC50 (HSV-1; Human alphaherpesvirus 1, Vero): 30 µg/mL (≈ 97.7 µM)
Virus Rating (HSV-1; Vero): 1.2
Virus Rating (HSV-2; HeLa): 1.5
EC50 (HSV-2; Human alphaherpesvirus 2, HeLa): 4 µg/mL (≈ 13 µM)
EC50 (HSV-2; Human alphaherpesvirus 2, Vero): 10 µg/mL (≈ 32.6 µM)
Virus Rating (HSV-2; Vero): 1.5
Virus Rating (Measles; HeLa): 1.8
EC50 (Measles; HeLa): 2 µg/mL (≈ 6.51 µM)
EC50 (Measles; Vero): 1 µg/mL (≈ 3.26 µM)
Virus Rating (Measles; Vero): 2.0
Virus Rating (Mumps; HeLa): 1.0
EC50 (Mumps; HeLa): 1 µg/mL (≈ 3.26 µM)
Virus Rating (Mumps; Vero): 1.7
EC50 (Mumps; Vero): 5 µg/mL (≈ 16.3 µM)
Virus Rating (Para 3; HeLa): 2.2
EC50 (Para 3; HeLa): 1 µg/mL (≈ 3.26 µM)
type of antiviral activity (Para 3; Para-3, depending upon cell line): virusstatic
Virus Rating (Para 3; Vero): 2.6
EC50 (Para 3; Vero): 1 µg/mL (≈ 3.26 µM)
Virus Rating (Reo 3; HeLa): 2.7
EC50 (Reo 3; HeLa): 8 µg/mL (≈ 26 µM)
Virus Rating (Reo 3; Vero): 1.8
EC50 (Reo 3; Vero): 1 µg/mL (≈ 3.26 µM)
Virus Rating (VV; HeLa): 2.4
EC50 (VV; HeLa): 2 µg/mL (≈ 6.51 µM)
type of antiviral activity (VV; Vaccinia, depending upon cell line): virucidal
Virus Rating (VV; Vero): 2.1
EC50 (VV; Vero): 3 µg/mL (≈ 9.77 µM)
antiviral activity in words (VSV; HeLa cells, Rhabdoviridae (VSV)): Excellent antiviral activity
Virus Rating (VSV; HeLa): 2.1
Virus Rating (VSV; Vero): 0.4
EC50 (VSV; HeLa): 9 µg/mL (≈ 29.3 µM)
EC50 (VSV; Vero): 1000 µg/mL (≈ 3260 µM)
antiviral activity in words (DNA and RNA viruses; DNA and RNA viruses, Vero or HeLa cells): showed activity against both small and large viruses of both DNA and RNA types; also recorded: good broad spectrum antiviral activity against both DNA and RNA viruses
inhibition of viral cytopathic effects in words (DNA and RNA viruses; cell culture, representative viruses): inhibits viral cytopathic effects in cell culture for representative viruses at extremely low dosage
growth inhibition in words (3 mouse tumor lines): inhibit growth in cell culture for representative tumor lines at extremely low dosage
toxicity to cells (Vero cells): non-toxic
toxicity to cells (Hela cells): non-toxic
toxicity to cells (MRC-5 cells): non-toxic
